Test results taken from patent US20260297109A1, “COMPOUNDS AS SUMO ACTIVATING ENZYME INHIBITORS” (WIGEN BIOMEDICINE TECHNOLOGY (SHANGHAI) CO., LTD., priority 2022, published 2026).

The compounds below were run against T1, SAE (Homo sapiens, UniProt Q9UBT2) (assay: SUMO IF: in vitro inhibitory activity assay against SAE in HCT116 cells (SUMO-2/3 immunofluorescence)). Conditions: class symbols, 6 h at 37° C.
T1 construct: endogenous in cells; host or cells: HCT116
T1 sequence (Q9UBT2 1-640): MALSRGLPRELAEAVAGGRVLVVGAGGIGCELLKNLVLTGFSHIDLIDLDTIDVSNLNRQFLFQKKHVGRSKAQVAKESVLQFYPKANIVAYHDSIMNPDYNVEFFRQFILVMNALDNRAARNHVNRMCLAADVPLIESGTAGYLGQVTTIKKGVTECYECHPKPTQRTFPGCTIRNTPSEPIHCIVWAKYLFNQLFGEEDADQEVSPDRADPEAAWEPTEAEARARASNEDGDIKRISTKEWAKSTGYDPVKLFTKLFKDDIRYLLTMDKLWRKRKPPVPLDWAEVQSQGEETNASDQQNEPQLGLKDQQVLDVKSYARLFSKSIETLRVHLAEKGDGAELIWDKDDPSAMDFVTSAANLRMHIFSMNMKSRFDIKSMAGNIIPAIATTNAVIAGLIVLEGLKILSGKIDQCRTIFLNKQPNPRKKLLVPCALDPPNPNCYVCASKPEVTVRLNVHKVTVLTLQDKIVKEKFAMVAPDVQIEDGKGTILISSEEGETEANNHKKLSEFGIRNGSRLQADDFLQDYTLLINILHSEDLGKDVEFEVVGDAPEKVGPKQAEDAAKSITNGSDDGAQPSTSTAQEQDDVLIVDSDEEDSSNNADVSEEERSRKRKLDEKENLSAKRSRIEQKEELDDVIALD
T1 sequence (Q9UBE0 1-346): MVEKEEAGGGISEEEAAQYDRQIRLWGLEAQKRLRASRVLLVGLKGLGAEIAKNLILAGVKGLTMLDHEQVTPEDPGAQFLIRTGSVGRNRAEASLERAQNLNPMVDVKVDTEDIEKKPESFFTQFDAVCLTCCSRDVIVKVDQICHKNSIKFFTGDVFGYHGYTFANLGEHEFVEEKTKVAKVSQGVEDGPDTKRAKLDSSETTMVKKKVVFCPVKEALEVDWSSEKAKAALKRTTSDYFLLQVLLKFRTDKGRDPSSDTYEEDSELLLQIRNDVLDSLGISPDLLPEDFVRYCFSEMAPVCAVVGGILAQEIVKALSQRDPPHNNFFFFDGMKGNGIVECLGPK
Assay type: cell-based
Method in brief: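 HCT116 cells were treated with compound for 6 h at 37 °C, then PFA-fixed, Triton-permeabilised and BSA-blocked. They were stained overnight at 4 °C with anti-SUMO-2/3 (18H8) rabbit mAb (1:400), then with FITC anti-rabbit IgG (1:300). Fluorescence versus DMSO gave inhibition rate and IC50.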
Work on `Cc1sc(C(=O)c2cncnc2N[C@H]2C[C@H](O)[C@@H](COS(N)(=O)=O)[C@@H]2F)cc1C1NC=Cc2ccc(Cl)cc21` (stereo partly drawn) [Compound 267] yielded an IC50 of 50 to 200 nM. For `NS(=O)(=O)OC[C@H]1[C@H](F)[C@@H](Nc2ncncc2C(=O)c2cc3c(s2)CCCC32NCC3(CC3)c3ccc(Cl)cc32)C[C@@H]1O` (stereo partly drawn) [Compound 123], the IC50 was 50 to 200 nM. In the case of `CC(C)N1Cc2sc(C(=O)c3cncnc3N[C@H]3C[C@H](O)[C@@H](COS(N)(=O)=O)[C@@H]3F)cc2[C@]2(C1)OCCc1ccc(Cl)cc12` [Compound 737], the IC50 is reported as ≤ 50 nM. `CC1=C[C@]2(NCCc3ccc(Cl)cc32)c2cc(C(=O)c3cncnc3N[C@H]3C[C@H](O)[C@@H](COS(N)(=O)=O)[C@@H]3F)sc21` [Compound 326] was tested, and the IC50 was ≤ 50 nM. With `CC1Cc2ccc(Cl)cc2C2(CCCc3sc(C(=O)c4cncnc4N[C@H]4C[C@H](O)[C@@H](COS(N)(=O)=O)[C@@H]4F)cc32)N1` (stereo partly drawn) [Compound 1023] the IC50 was 50 to 200 nM. In the case of `CC1Cc2ccc(Cl)cc2[C@]2(C=Cc3sc(C(=O)c4cncnc4N[C@H]4C[C@H](O)[C@@H](COS(N)(=O)=O)[C@@H]4F)cc32)N1` (stereo partly drawn) [Compound 1057], the IC50 is reported as > 200 nM. In the case of `Cc1sc(C(=O)c2cncnc2N[C@H]2C[C@H](O)[C@@H](COS(N)(=O)=O)[C@@H]2F)cc1[C@H]1OCCc2ccc(Cl)cc21` [Compound 989], the IC50 is reported as > 200 nM. With `NS(=O)(=O)OC[C@H]1[C@H](F)[C@@H](Nc2ncncc2C(=O)c2cc3c(s2)COC[C@]32NCCc3ccc(Cl)c(Cl)c32)C[C@@H]1O` [Compound 560] the IC50 was 50 to 200 nM. With `NS(=O)(=O)OC[C@H]1[C@H](F)[C@@H](Nc2ncncc2C(=O)c2cc3c(s2)CC[C@@]32OCCc3ccc(F)cc32)C[C@@H]1O` [Compound 748] the IC50 was > 200 nM. `CC1=CC2(NCCc3ccc(F)cc32)c2cc(C(=O)c3cncnc3N[C@H]3C[C@H](O)[C@@H](COS(N)(=O)=O)[C@@H]3F)sc21` (stereo partly drawn) [Compound 621] gave an IC50 of 50 to 200 nM. `NS(=O)(=O)OC[C@H]1[C@H](F)[C@@H](Nc2ncncc2C(=O)c2cc3c(s2)CCC[C@@]32NCC3(CC3)c3ccc(Cl)cc32)C[C@@H]1O` [Compound 616] was tested, and the IC50 was > 200 nM. `N#Cc1ccc2c(c1)[C@]1(CCCc3sc(C(=O)c4cncnc4N[C@H]4C[C@H](O)[C@@H](COS(N)(=O)=O)[C@@H]4F)cc31)NCC2` [Compound 95] was tested, and the IC50 was > 200 nM. `CC(C)N1Cc2sc(C(=O)c3cncnc3N[C@H]3C[C@H](O)[C@@H](COS(N)(=O)=O)[C@@H]3F)cc2C2(C1)OCCc1ccc(Cl)cc12` (stereo partly drawn) [Compound 735] gave an IC50 of 50 to 200 nM. With `NS(=O)(=O)OC[C@H]1[C@H](F)[C@@H](Nc2ncncc2C(=O)c2cc(C3NCCc4ccc(Cl)cc43)c(C(F)(F)F)s2)C[C@@H]1O` (stereo partly drawn) [Compound 268] the IC50 was 50 to 200 nM. `NS(=O)(=O)OC[C@H]1[C@H](F)[C@@H](Nc2ncncc2C(=O)c2cc3c(s2)CCC32NCCc3ccc(F)cc32)C[C@@H]1O` (stereo partly drawn) [Compound 133] gave an IC50 of 50 to 200 nM. `NS(=O)(=O)OC[C@H]1[C@H](F)[C@@H](Nc2ncncc2C(=O)c2cc3c(s2)OCC32NCCc3ccccc32)C[C@@H]1O` (stereo partly drawn) [Compound 139] was tested, and the IC50 was > 200 nM. With `NS(=O)(=O)OC[C@H]1[C@H](F)[C@@H](Nc2ncncc2C(=O)c2cc3c(s2)OCCC32NCCc3ccc(Cl)cc32)C[C@@H]1O` (stereo partly drawn) [Compound 122] the IC50 was 50 to 200 nM. `NS(=O)(=O)OC[C@H]1[C@H](F)[C@@H](Nc2ncncc2C(=O)c2cc3c(s2)CCC[C@]32NCCc3cc(F)c(F)cc32)C[C@@H]1O` [Compound 670] was tested, and the IC50 was ≤ 50 nM. For `NS(=O)(=O)OC[C@H]1[C@H](F)[C@@H](Nc2ncncc2C(=O)c2cc3c(s2)C(F)=C[C@@]32NCCc3ccc(F)cc32)C[C@@H]1O` [Compound 619], the IC50 was > 200 nM. Compound `NS(=O)(=O)OC[C@H]1[C@H](F)[C@@H](Nc2ncncc2C(=O)c2cc3c(s2)COC[C@]32NCCc3ccccc32)C[C@@H]1O` [Compound 99] has an IC50 of 50 to 200 nM. With `NS(=O)(=O)OC[C@H]1[C@H](F)[C@@H](Nc2ncncc2C(=O)c2cc3c(s2)CC[C@]32OCCc3ccc(Cl)cc32)C[C@@H]1O` [Compound 707] the IC50 was ≤ 50 nM. `NS(=O)(=O)OC[C@H]1[C@H](F)[C@@H](Nc2ncncc2C(=O)c2cc3c(s2)CSC[C@]32NCCc3cnc(Cl)cc32)C[C@@H]1O` [Compound 608] was tested, and the IC50 was ≤ 50 nM. In the case of `CC1(C)Cc2ccc(Cl)cc2[C@]2(CCCc3sc(C(=O)c4cncnc4N[C@H]4C[C@H](O)[C@@H](COS(N)(=O)=O)[C@@H]4F)cc32)N1` [Compound 1030], the IC50 is reported as > 200 nM. Compound `CCN1Cc2sc(C(=O)c3cncnc3N[C@H]3C[C@H](O)[C@@H](COS(N)(=O)=O)[C@@H]3F)cc2C2(C1)OCCc1ccc(F)cc12` (stereo partly drawn) [Compound 726] has an IC50 of 50 to 200 nM. With `NS(=O)(=O)OC[C@H]1[C@H](F)[C@@H](Nc2ncncc2C(=O)c2nc3c(s2)CCC[C@]32NCCc3ccc(Cl)cc32)C[C@@H]1O` [Compound 587] the IC50 was 50 to 200 nM. `NS(=O)(=O)CC[C@H]1[C@H](F)[C@@H](Nc2ncncc2C(=O)c2cc3c(s2)C=C[C@@]32NCCc3ccc(Cl)cc32)C[C@@H]1O` [Compound 639] was tested, and the IC50 was > 200 nM. `NS(=O)(=O)OC[C@H]1[C@H](F)[C@@H](Nc2ncncc2C(=O)c2cc3c(s2)C=C[C@@]32OCCc3ccccc32)C[C@@H]1O` [Compound 754] was tested, and the IC50 was > 200 nM. For `NS(=O)(=O)OC[C@H]1[C@H](F)[C@@H](Nc2ncncc2C(=O)c2nc3c(s2)CCC[C@@]32NCCc3ccc(Cl)cc32)C[C@@H]1O` [Compound 586], the IC50 was > 200 nM. Compound `Cc1sc(C(=O)c2cncnc2N[C@H]2C[C@H](O)[C@@H](COS(N)(=O)=O)[C@@H]2F)cc1C1OCCc2ccc(Cl)cc21` (stereo partly drawn) [Compound 987] has an IC50 of 50 to 200 nM. `CN(C)c1sc(C(=O)c2cncnc2N[C@H]2C[C@H](O)[C@@H](COS(N)(=O)=O)[C@@H]2F)cc1C1NCCc2ccc(Cl)cc21` (stereo partly drawn) [Compound 263] showed an IC50 of 50 to 200 nM. `NS(=O)(=O)OC[C@H]1[C@H](F)[C@@H](Nc2ncncc2C(=O)c2cc3c(s2)COC[C@@]32NCCc3cc(F)c(Cl)cc32)C[C@@H]1O` [Compound 571] was tested, and the IC50 was > 200 nM. `NS(=O)(=O)OC[C@H]1[C@H](F)[C@@H](Nc2ncncc2C(=O)c2cc3c(s2)CC[C@]32NCCc3ccc(C(F)(F)F)cc32)C[C@@H]1O` [Compound 690] gave an IC50 of 50 to 200 nM. `NS(=O)(=O)OC[C@H]1[C@H](F)[C@@H](Nc2ncncc2C(=O)c2cc3c(s2)C(F)(F)CC32NCCc3ccc(F)cc32)C[C@@H]1O` (stereo partly drawn) [Compound 624] showed an IC50 of 50 to 200 nM. In the case of `C#Cc1ccc2c(c1)[C@@]1(CCCc3sc(C(=O)c4cncnc4N[C@H]4C[C@H](O)[C@@H](COS(N)(=O)=O)[C@@H]4F)cc31)NCC2` [Compound 668], the IC50 is reported as 50 to 200 nM. `Cc1ccc2c(c1)[C@@]1(CCCc3sc(C(=O)c4cncnc4N[C@H]4C[C@H](O)[C@@H](COS(N)(=O)=O)[C@@H]4F)cc31)NCC2` [Compound 666] gave an IC50 of 50 to 200 nM. `CC1=CC2(NCCc3ccc(Cl)cc32)c2cc(C(=O)c3cncnc3N[C@H]3C[C@H](O)[C@@H](COS(N)(=O)=O)[C@@H]3F)sc21` (stereo partly drawn) [Compound 324] showed an IC50 of 50 to 200 nM. For `NS(=O)(=O)OC[C@H]1[C@H](F)[C@@H](Nc2ncncc2C(=O)c2cc3c(s2)COCC32NCCc3ccc(Cl)cc32)C[C@@H]1O` (stereo partly drawn) [Compound 103], the IC50 was 50 to 200 nM. With `NS(=O)(=O)OC[C@H]1[C@H](F)[C@@H](Nc2ncncc2C(=O)c2cc3c(s2)CCC[C@]32NC(=O)Cc3ccc(Cl)cc32)C[C@@H]1O` [Compound 629] the IC50 was > 200 nM. With `NS(=O)(=O)OC[C@H]1[C@H](F)[C@@H](Nc2ncncc2C(=O)c2cc3c(s2)CN(C2CC2)C[C@]32OCCc3ccc(Cl)cc32)C[C@@H]1O` [Compound 743] the IC50 was ≤ 50 nM. With `COc1cc2c(cc1Cl)[C@@]1(CCCc3sc(C(=O)c4cncnc4N[C@H]4C[C@H](O)[C@@H](COS(N)(=O)=O)[C@@H]4F)cc31)NCC2` [Compound 675] the IC50 was 50 to 200 nM.

Same assay, conditions: numeric values, 6 h at 37° C.
For `[2H]C1([2H])Cc2ccc(Cl)cc2[C@@]2(CCCc3sc(C(=O)c4cncnc4N[C@H]4C[C@H](O)[C@@H](COS(N)(=O)=O)[C@@H]4F)cc32)N1` [Compound 662], the IC50 was 23.5 nM. `C=CCN1Cc2sc(C(=O)c3cncnc3N[C@H]3C[C@H](O)[C@@H](COS(N)(=O)=O)[C@@H]3F)cc2[C@@]2(C1)NCCc1ccc(Cl)cc12` [Compound 655] was tested, and the IC50 was > 1000 nM. With `NS(=O)(=O)OC[C@H]1[C@H](F)[C@@H](Nc2ncncc2C(=O)c2cc3c(s2)CN(CC(F)(F)F)C[C@@]32NCCc3ccc(Cl)cc32)C[C@@H]1O` [Compound 652] the IC50 was > 1000 nM. With `NS(=O)(=O)OC[C@H]1[C@H](F)[C@@H](Nc2ncncc2C(=O)c2cc3c(s2)CN(C2CC2)C[C@]32NCCc3ccc(Cl)cc32)C[C@@H]1O` [Compound 581] the IC50 was 23.8 nM. For `CN1Cc2sc(C(=O)c3cncnc3N[C@H]3C[C@H](O)[C@@H](COS(N)(=O)=O)[C@@H]3F)cc2[C@@]2(C1)NCCc1ccc(Cl)cc12` [Compound 577], the IC50 was > 1000 nM.
